# Source: PubChem BioAssay AID1918931 (Molecular Pharmacology Branch, DTP, NCI, 2023)
# Test system: 138582-337-R-J1-PDC complex spheroid viability
# Assay: Anticancer human tumor 138582-337-R-J1-PDC patient-derived Merkel cell tumor cell line growth inhibition
# Details: for IC50: curve of first compound; for viability, T/C: stronger effect = lower value
# Outline: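 Drug combinations with the LSD1 inhibitor iadademstat tested on tumor cells co-cultured as spheroids with endothelial cells and mesenchymal stem cells. Concentrations descended in half-log increments from clinical Cmax or 10 microM.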
# 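Further: spheroids exposed to agents for 7 days.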
# 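Wherever viability, T/C is given: 100% = DMSO vehicle control viability.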
structure (smiles),measurement,setting,value
CC1(C)CCC(CN2CCN(c3ccc(C(=O)NS(=O)(=O)c4ccc(NCC5CCOCC5)c([N+](=O)[O-])c4)c(Oc4cnc5[nH]ccc5c4)c3)CC2)=C(c2ccc(Cl)cc2)C1 + NC1CCC(NC2CC2c2ccccc2)CC1,IC50,second compound 0.1 µM,> 10 µM
same,IC50,second compound 0.316 µM,> 10 µM
same,IC50,second compound 1 µM,> 10 µM
same,IC50,second compound 3.16 µM,> 10 µM
same,IC50,second compound 10 µM,> 10 µM
same,"viability, T/C","second compound 0.1 µM, first compound 0.0316 µM",85.4%
same,"viability, T/C","second compound 0.1 µM, first compound 0.1 µM",95%
same,"viability, T/C","second compound 0.1 µM, first compound 0.316 µM",92.5%
same,"viability, T/C","second compound 0.1 µM, first compound 1 µM",91.8%
same,"viability, T/C","second compound 0.1 µM, first compound 3.16 µM",90.7%
same,"viability, T/C","second compound 0.1 µM, first compound 10 µM",126%
same,"viability, T/C","second compound 0.316 µM, first compound 0.0316 µM",95.9%
same,"viability, T/C","second compound 0.316 µM, first compound 0.1 µM",104%
same,"viability, T/C","second compound 0.316 µM, first compound 0.316 µM",99.1%
same,"viability, T/C","second compound 0.316 µM, first compound 1 µM",109%
same,"viability, T/C","second compound 0.316 µM, first compound 3.16 µM",96.8%
same,"viability, T/C","second compound 0.316 µM, first compound 10 µM",88.7%
same,"viability, T/C","second compound 1 µM, first compound 0.0316 µM",99.8%
same,"viability, T/C","second compound 1 µM, first compound 0.1 µM",89.9%
same,"viability, T/C","second compound 1 µM, first compound 0.316 µM",82.3%
same,"viability, T/C","second compound 1 µM, first compound 1 µM",79.9%
same,"viability, T/C","second compound 1 µM, first compound 3.16 µM",92.1%
same,"viability, T/C","second compound 1 µM, first compound 10 µM",81.3%
same,"viability, T/C","second compound 3.16 µM, first compound 0.0316 µM",90.7%
same,"viability, T/C","second compound 3.16 µM, first compound 0.1 µM",100%
same,"viability, T/C","second compound 3.16 µM, first compound 0.316 µM",108%
same,"viability, T/C","second compound 3.16 µM, first compound 1 µM",106%
same,"viability, T/C","second compound 3.16 µM, first compound 3.16 µM",92.5%
same,"viability, T/C","second compound 3.16 µM, first compound 10 µM",77.3%
same,"viability, T/C","second compound 10 µM, first compound 0.0316 µM",80.2%
same,"viability, T/C","second compound 10 µM, first compound 0.1 µM",88.1%
same,"viability, T/C","second compound 10 µM, first compound 0.316 µM",70.8%
same,"viability, T/C","second compound 10 µM, first compound 1 µM",78.7%
same,"viability, T/C","second compound 10 µM, first compound 3.16 µM",78.3%
same,"viability, T/C","second compound 10 µM, first compound 10 µM",63.5%
CCN(c1cc(-c2ccc(CN3CCOCC3)cc2)cc(C(=O)NCc2c(C)cc(C)[nH]c2=O)c1C)C1CCOCC1 + NC1CCC(NC2CC2c2ccccc2)CC1,IC50,second compound 0.1 µM,> 3 µM
same,IC50,second compound 0.316 µM,> 3 µM
same,IC50,second compound 1 µM,> 3 µM
same,IC50,second compound 3.16 µM,> 3 µM
same,IC50,second compound 10 µM,> 3 µM
same,"viability, T/C","second compound 0.1 µM, first compound 0.00949 µM",101%
same,"viability, T/C","second compound 0.1 µM, first compound 0.03 µM",87.9%
same,"viability, T/C","second compound 0.1 µM, first compound 0.0949 µM",109%
same,"viability, T/C","second compound 0.1 µM, first compound 0.3 µM",92.4%
same,"viability, T/C","second compound 0.1 µM, first compound 0.949 µM",106%
same,"viability, T/C","second compound 0.1 µM, first compound 3 µM",111%
same,"viability, T/C","second compound 0.316 µM, first compound 0.00949 µM",101%
same,"viability, T/C","second compound 0.316 µM, first compound 0.03 µM",101%
same,"viability, T/C","second compound 0.316 µM, first compound 0.0949 µM",91%
same,"viability, T/C","second compound 0.316 µM, first compound 0.3 µM",95.3%
same,"viability, T/C","second compound 0.316 µM, first compound 0.949 µM",124%
same,"viability, T/C","second compound 0.316 µM, first compound 3 µM",105%
same,"viability, T/C","second compound 1 µM, first compound 0.00949 µM",98.6%
same,"viability, T/C","second compound 1 µM, first compound 0.03 µM",106%
same,"viability, T/C","second compound 1 µM, first compound 0.0949 µM",98.2%
same,"viability, T/C","second compound 1 µM, first compound 0.3 µM",90.3%
same,"viability, T/C","second compound 1 µM, first compound 0.949 µM",97.7%
same,"viability, T/C","second compound 1 µM, first compound 3 µM",103%
same,"viability, T/C","second compound 3.16 µM, first compound 0.00949 µM",99.2%
same,"viability, T/C","second compound 3.16 µM, first compound 0.03 µM",103%
same,"viability, T/C","second compound 3.16 µM, first compound 0.0949 µM",90.6%
same,"viability, T/C","second compound 3.16 µM, first compound 0.3 µM",92.3%
same,"viability, T/C","second compound 3.16 µM, first compound 0.949 µM",110%
same,"viability, T/C","second compound 3.16 µM, first compound 3 µM",105%
same,"viability, T/C","second compound 10 µM, first compound 0.00949 µM",88.9%
same,"viability, T/C","second compound 10 µM, first compound 0.03 µM",86.7%
same,"viability, T/C","second compound 10 µM, first compound 0.0949 µM",82.2%
same,"viability, T/C","second compound 10 µM, first compound 0.3 µM",90.9%
same,"viability, T/C","second compound 10 µM, first compound 0.949 µM",84.9%
same,"viability, T/C","second compound 10 µM, first compound 3 µM",84.8%
